Assay results published in ChEMBL document CHEMBL1155237, “Selective inhibitors of the mutant B-Raf pathway: discovery of a potent and orally bioavailable aminoisoquinoline” (J Med Chem, 2009).

Assays:
[1] = molecular target: Mitogen-activated protein kinase kinase kinase 11 (Homo sapiens) (UniProt Q16584); experiment: Inhibition of MLK3 assessed as enzyme activity at 1 uM relative to untreated control; parameters: scale not given: the % may be the effect or the level left
[2] = molecular target: Protein kinase C delta type (Homo sapiens) (UniProt Q05655); experiment: Inhibition of PRKCdelta assessed as enzyme activity at 1 uM relative to untreated control; parameters: scale not given: the % may be the effect or the level left
[3] = molecular target: Platelet-derived growth factor receptor alpha (Homo sapiens) (UniProt P16234); experiment: Inhibition of PDGFRA assessed as enzyme activity at 1 uM relative to untreated control; parameters: scale not given: the % may be the effect or the level left
[4] = molecular target: Glycogen synthase kinase-3 alpha (Homo sapiens) (UniProt P49840); experiment: Inhibition of GSK3A assessed as enzyme activity at 1 uM relative to untreated control; parameters: scale not given: the % may be the effect or the level left
[5] = molecular target: Receptor-interacting serine/threonine-protein kinase 4 (Homo sapiens) (UniProt P57078); experiment: Inhibition of RIPK4 assessed as enzyme activity at 1 uM relative to untreated control; parameters: scale not given: the % may be the effect or the level left
[6] = AUC (0 to 24 hrs) in human A375 SQ2 cells xenografted po dosed CD1 mouse administered once daily for 14 days; assay type: ADME, organism-based, A-375; parameters: time < 24 hr, route oral; settings: in vivo
[7] = molecular target: Serine/threonine-protein kinase 35 (Homo sapiens) (UniProt Q8TDR2); experiment: Inhibition of STK35 assessed as enzyme activity at 1 uM relative to untreated control; parameters: scale not given: the % may be the effect or the level left
[8] = molecular target: Ribosomal protein S6 kinase alpha-1 (Homo sapiens) (UniProt Q15418); experiment: Inhibition of RPS6KA1 kinase domain 2 assessed as enzyme activity at 1 uM relative to untreated control; parameters: scale not given: the % may be the effect or the level left
[9] = molecular target: Mitogen-activated protein kinase 7 (Homo sapiens) (UniProt Q13164); experiment: Inhibition of ERK5 assessed as enzyme activity at 1 uM relative to untreated control; parameters: scale not given: the % may be the effect or the level left
[10] = molecular target: Bone morphogenetic protein receptor type-1A (Homo sapiens) (UniProt P36894); experiment: Inhibition of BMPR1A assessed as enzyme activity at 1 uM relative to untreated control; parameters: scale not given: the % may be the effect or the level left
[11] = molecular target: Serine/threonine-protein kinase BRSK2 (Homo sapiens) (UniProt Q8IWQ3); experiment: Inhibition of BRSK2 assessed as enzyme activity at 1 uM relative to untreated control; parameters: scale not given: the % may be the effect or the level left
[12] = molecular target: Ankyrin repeat and protein kinase domain-containing protein 1 (Homo sapiens) (UniProt Q8NFD2); experiment: Inhibition of ANKK1 assessed as enzyme activity at 1 uM relative to untreated control; parameters: scale not given: the % may be the effect or the level left
[13] = molecular target: Serine/threonine-protein kinase MARK2 (Homo sapiens) (UniProt Q7KZI7); experiment: Inhibition of MARK2 assessed as enzyme activity at 1 uM relative to untreated control; parameters: scale not given: the % may be the effect or the level left
[14] = molecular target: Hepatocyte growth factor receptor (Homo sapiens) (UniProt P08581); experiment: Inhibition of MET assessed as enzyme activity at 1 uM relative to untreated control; parameters: scale not given: the % may be the effect or the level left
[15] = molecular target: Serine/threonine-protein kinase SIK2 (Homo sapiens) (UniProt Q9H0K1); experiment: Inhibition of SNF1LK2 assessed as enzyme activity at 1 uM relative to untreated control; parameters: scale not given: the % may be the effect or the level left
[16] = molecular target: Serine/threonine-protein kinase 10 (Homo sapiens) (UniProt O94804); experiment: Inhibition of LOK assessed as enzyme activity at 1 uM relative to untreated control; parameters: scale not given: the % may be the effect or the level left
[17] = molecular target: Ephrin type-A receptor 5 (Homo sapiens) (UniProt P54756); experiment: Inhibition of EPHA5 assessed as enzyme activity at 1 uM relative to untreated control; parameters: scale not given: the % may be the effect or the level left
[18] = molecular target: TRAF2 and NCK-interacting protein kinase (Homo sapiens) (UniProt Q9UKE5); experiment: Inhibition of TNIK assessed as enzyme activity at 1 uM relative to untreated control; parameters: scale not given: the % may be the effect or the level left
[19] = molecular target: Ribosomal protein S6 kinase alpha-5 (Homo sapiens) (UniProt O75582); experiment: Inhibition of RPS6KA5 kinase domain 1 assessed as enzyme activity at 1 uM relative to untreated control; parameters: scale not given: the % may be the effect or the level left
[20] = Volume of distribution at steady state in Sprague-Dawley rat at 2 mg/kg, iv and 5 mg/kg, po; assay type: ADME, organism-based; settings: in vivo, read-out: Vdss
[21] = Elimination half life in Sprague-Dawley rat at 2 mg/kg, iv and 5 mg/kg, po; assay type: ADME, organism-based; settings: in vivo, read-out: beta t1/2 (converted)
[22] = molecular target: Cyclin-dependent kinase 3 (Homo sapiens) (UniProt Q00526); experiment: Inhibition of CDK3 assessed as enzyme activity at 1 uM relative to untreated control; parameters: scale not given: the % may be the effect or the level left
[23] = molecular target: Phosphatidylinositol 4-phosphate 5-kinase type-1 alpha (Homo sapiens) (UniProt Q99755); experiment: Inhibition of PIP5K1A assessed as enzyme activity at 1 uM relative to untreated control; parameters: scale not given: the % may be the effect or the level left
[24] = molecular target: Casein kinase I isoform alpha-like (Homo sapiens) (UniProt Q8N752); experiment: Inhibition of CSNK1A1L assessed as enzyme activity at 1 uM relative to untreated control; parameters: scale not given: the % may be the effect or the level left
[25] = molecular target: Tyrosine-protein kinase JAK3 (Homo sapiens) (UniProt P52333); experiment: Inhibition of JAK3 kinase domain 2 assessed as enzyme activity at 1 uM relative to untreated control; parameters: scale not given: the % may be the effect or the level left
[26] = molecular target: Ephrin type-A receptor 8 (Homo sapiens) (UniProt P29322); experiment: Inhibition of EPHA8 assessed as enzyme activity at 1 uM relative to untreated control; parameters: scale not given: the % may be the effect or the level left
[27] = molecular target: Serine/threonine-protein kinase DCLK1 (Homo sapiens) (UniProt O15075); experiment: Inhibition of DCAMKL1 assessed as enzyme activity at 1 uM relative to untreated control; parameters: scale not given: the % may be the effect or the level left
[28] = molecular target: Insulin receptor-related protein (Homo sapiens) (UniProt P14616); experiment: Inhibition of INSRR assessed as enzyme activity at 1 uM relative to untreated control; parameters: scale not given: the % may be the effect or the level left
[29] = molecular target: Tyrosine-protein kinase Lyn (Homo sapiens) (UniProt P07948); experiment: Inhibition of LYN assessed as enzyme activity at 1 uM relative to untreated control; parameters: scale not given: the % may be the effect or the level left
[30] = molecular target: Rho-associated protein kinase 2 (Homo sapiens) (UniProt O75116); experiment: Inhibition of ROCK2 assessed as enzyme activity at 1 uM relative to untreated control; parameters: scale not given: the % may be the effect or the level left
[31] = molecular target: Glycogen synthase kinase-3 beta (Homo sapiens) (UniProt P49841); experiment: Inhibition of GSK3B assessed as enzyme activity at 1 uM relative to untreated control; parameters: scale not given: the % may be the effect or the level left
[32] = molecular target: NUAK family SNF1-like kinase 2 (Homo sapiens) (UniProt Q9H093); experiment: Inhibition of SNARK assessed as enzyme activity at 1 uM relative to untreated control; parameters: scale not given: the % may be the effect or the level left
[33] = molecular target: Calcium/calmodulin-dependent protein kinase kinase 2 (Homo sapiens) (UniProt Q96RR4); experiment: Inhibition of CAMKK2 assessed as enzyme activity at 1 uM relative to untreated control; parameters: scale not given: the % may be the effect or the level left
[34] = molecular target: Serine/threonine-protein kinase ULK2 (Homo sapiens) (UniProt Q8IYT8); experiment: Inhibition of ULK2 assessed as enzyme activity at 1 uM relative to untreated control; parameters: scale not given: the % may be the effect or the level left
[35] = molecular target: Bone morphogenetic protein receptor type-2 (Homo sapiens) (UniProt Q13873); experiment: Inhibition of BMPR2 assessed as enzyme activity at 1 uM relative to untreated control; parameters: scale not given: the % may be the effect or the level left
[36] = molecular target: 5'-AMP-activated protein kinase catalytic subunit alpha-2 (Homo sapiens) (UniProt P54646); experiment: Inhibition of AMPKalpha2 assessed as enzyme activity at 1 uM relative to untreated control; parameters: scale not given: the % may be the effect or the level left
[37] = molecular target: Serine/threonine-protein kinase 33 (Homo sapiens) (UniProt Q9BYT3); experiment: Inhibition of STK33 assessed as enzyme activity at 1 uM relative to untreated control; parameters: scale not given: the % may be the effect or the level left
[38] = molecular target: Ephrin type-B receptor 4 (Homo sapiens) (UniProt P54760); experiment: Inhibition of EPHB4 assessed as enzyme activity at 1 uM relative to untreated control; parameters: scale not given: the % may be the effect or the level left

Sequence of Receptor-interacting serine/threonine-protein kinase 4 (Homo sapiens) (P57078 whole entry): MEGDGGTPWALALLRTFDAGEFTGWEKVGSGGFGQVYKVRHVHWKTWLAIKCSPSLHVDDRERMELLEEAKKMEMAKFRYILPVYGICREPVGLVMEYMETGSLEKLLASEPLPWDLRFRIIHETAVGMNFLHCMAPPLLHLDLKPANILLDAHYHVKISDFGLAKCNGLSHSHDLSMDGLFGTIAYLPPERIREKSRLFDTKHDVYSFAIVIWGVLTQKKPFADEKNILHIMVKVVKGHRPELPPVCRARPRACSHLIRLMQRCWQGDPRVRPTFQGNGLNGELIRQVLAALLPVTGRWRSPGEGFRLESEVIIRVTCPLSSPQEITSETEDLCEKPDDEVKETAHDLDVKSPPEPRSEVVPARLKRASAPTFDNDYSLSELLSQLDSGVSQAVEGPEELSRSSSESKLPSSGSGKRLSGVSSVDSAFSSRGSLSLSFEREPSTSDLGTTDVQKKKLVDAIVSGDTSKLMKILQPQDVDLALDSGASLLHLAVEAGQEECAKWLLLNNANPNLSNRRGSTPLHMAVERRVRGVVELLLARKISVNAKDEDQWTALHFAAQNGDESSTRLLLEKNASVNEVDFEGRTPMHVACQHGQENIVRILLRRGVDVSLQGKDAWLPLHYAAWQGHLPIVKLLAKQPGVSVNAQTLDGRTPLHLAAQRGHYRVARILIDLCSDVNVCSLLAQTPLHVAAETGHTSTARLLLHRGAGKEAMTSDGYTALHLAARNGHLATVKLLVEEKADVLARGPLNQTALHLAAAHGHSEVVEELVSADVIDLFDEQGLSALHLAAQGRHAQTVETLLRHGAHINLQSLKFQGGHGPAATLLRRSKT
Sequence of Casein kinase I isoform alpha-like (Homo sapiens) (Q8N752 whole entry, the tested form may be a part, canonical isoform): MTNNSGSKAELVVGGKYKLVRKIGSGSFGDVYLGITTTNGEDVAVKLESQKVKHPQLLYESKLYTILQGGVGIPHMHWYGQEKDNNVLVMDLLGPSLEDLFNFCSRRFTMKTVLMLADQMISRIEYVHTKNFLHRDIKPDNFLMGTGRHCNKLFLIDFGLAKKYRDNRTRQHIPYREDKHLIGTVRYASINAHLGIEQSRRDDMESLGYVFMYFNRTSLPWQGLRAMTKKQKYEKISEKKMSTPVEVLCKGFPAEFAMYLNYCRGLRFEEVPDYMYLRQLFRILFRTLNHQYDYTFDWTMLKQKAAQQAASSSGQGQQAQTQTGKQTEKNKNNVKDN
Sequence of NUAK family SNF1-like kinase 2 (Homo sapiens) (Q9H093 whole entry): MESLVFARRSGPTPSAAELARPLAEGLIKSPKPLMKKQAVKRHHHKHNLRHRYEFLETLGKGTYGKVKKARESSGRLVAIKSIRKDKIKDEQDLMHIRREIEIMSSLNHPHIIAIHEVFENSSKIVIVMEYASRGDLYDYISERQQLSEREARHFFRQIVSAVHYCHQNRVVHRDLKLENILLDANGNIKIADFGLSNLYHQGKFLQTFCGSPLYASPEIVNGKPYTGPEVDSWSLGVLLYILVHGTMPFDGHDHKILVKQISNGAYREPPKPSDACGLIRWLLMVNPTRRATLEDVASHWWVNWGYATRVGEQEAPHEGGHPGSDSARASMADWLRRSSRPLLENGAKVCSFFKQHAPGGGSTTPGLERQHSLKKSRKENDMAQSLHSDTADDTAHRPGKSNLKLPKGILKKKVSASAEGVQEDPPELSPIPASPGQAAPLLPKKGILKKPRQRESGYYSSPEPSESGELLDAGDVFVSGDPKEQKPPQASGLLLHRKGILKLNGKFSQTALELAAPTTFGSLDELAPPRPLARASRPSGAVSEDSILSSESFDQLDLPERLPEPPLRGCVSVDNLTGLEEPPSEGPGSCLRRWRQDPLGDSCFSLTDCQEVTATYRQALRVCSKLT
Sequence of Ankyrin repeat and protein kinase domain-containing protein 1 (Homo sapiens) (Q8NFD2 whole entry, the tested form may be a part): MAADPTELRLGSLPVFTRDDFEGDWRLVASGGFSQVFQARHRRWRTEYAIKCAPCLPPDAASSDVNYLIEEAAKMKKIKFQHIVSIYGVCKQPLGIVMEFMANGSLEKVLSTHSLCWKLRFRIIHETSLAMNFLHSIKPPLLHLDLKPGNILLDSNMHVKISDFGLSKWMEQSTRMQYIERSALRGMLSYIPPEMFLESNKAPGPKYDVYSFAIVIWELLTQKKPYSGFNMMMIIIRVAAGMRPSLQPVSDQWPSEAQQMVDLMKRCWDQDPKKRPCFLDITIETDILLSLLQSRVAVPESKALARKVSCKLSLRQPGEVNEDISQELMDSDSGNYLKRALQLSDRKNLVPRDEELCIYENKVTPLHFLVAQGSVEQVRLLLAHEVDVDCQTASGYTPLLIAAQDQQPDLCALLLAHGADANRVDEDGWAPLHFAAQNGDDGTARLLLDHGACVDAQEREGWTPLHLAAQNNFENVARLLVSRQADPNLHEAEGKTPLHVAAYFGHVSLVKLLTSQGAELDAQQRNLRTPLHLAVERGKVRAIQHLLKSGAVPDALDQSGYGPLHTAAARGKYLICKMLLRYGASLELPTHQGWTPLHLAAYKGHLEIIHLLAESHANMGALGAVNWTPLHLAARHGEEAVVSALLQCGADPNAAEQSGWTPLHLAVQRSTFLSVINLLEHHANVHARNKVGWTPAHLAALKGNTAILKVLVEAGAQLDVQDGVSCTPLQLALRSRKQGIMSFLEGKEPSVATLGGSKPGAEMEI
Sequence of Serine/threonine-protein kinase 35 (Homo sapiens) (Q8TDR2 whole entry, the tested form may be a part): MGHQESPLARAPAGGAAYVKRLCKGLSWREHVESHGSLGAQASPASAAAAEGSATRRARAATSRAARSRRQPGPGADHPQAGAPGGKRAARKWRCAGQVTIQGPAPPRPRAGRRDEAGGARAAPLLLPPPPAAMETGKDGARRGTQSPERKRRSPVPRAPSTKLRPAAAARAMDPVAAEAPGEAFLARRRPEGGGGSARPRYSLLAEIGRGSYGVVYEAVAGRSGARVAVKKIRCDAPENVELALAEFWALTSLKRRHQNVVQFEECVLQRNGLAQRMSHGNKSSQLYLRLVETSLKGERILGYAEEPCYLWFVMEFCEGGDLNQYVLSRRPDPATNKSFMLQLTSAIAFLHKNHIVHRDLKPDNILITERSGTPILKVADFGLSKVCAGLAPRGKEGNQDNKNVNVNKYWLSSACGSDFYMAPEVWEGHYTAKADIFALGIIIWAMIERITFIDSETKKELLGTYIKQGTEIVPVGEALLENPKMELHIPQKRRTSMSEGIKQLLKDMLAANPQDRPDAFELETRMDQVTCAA
Sequence of Mitogen-activated protein kinase 7 (Homo sapiens) (Q13164 2-816 limits assumed): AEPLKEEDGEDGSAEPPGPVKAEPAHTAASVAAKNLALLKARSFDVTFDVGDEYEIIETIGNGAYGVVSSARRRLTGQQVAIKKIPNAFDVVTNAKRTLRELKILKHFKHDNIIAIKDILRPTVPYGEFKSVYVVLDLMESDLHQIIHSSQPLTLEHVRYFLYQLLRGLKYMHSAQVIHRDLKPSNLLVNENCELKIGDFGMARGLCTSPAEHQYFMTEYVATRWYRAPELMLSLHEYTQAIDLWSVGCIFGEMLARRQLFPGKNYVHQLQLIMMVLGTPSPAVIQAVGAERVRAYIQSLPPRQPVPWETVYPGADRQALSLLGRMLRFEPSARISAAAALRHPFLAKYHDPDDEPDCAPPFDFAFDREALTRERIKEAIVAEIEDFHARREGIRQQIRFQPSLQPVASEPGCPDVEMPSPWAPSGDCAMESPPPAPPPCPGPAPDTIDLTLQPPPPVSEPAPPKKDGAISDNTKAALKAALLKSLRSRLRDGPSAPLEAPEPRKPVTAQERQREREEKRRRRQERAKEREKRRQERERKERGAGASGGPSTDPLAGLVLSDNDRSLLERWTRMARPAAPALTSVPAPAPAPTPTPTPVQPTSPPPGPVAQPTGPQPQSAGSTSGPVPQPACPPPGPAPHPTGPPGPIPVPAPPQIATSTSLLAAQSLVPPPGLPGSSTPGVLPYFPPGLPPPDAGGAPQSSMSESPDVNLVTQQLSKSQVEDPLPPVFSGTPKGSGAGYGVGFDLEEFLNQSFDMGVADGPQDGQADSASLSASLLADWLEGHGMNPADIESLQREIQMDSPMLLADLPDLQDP
Sequence of Platelet-derived growth factor receptor alpha (Homo sapiens) (P16234 whole entry): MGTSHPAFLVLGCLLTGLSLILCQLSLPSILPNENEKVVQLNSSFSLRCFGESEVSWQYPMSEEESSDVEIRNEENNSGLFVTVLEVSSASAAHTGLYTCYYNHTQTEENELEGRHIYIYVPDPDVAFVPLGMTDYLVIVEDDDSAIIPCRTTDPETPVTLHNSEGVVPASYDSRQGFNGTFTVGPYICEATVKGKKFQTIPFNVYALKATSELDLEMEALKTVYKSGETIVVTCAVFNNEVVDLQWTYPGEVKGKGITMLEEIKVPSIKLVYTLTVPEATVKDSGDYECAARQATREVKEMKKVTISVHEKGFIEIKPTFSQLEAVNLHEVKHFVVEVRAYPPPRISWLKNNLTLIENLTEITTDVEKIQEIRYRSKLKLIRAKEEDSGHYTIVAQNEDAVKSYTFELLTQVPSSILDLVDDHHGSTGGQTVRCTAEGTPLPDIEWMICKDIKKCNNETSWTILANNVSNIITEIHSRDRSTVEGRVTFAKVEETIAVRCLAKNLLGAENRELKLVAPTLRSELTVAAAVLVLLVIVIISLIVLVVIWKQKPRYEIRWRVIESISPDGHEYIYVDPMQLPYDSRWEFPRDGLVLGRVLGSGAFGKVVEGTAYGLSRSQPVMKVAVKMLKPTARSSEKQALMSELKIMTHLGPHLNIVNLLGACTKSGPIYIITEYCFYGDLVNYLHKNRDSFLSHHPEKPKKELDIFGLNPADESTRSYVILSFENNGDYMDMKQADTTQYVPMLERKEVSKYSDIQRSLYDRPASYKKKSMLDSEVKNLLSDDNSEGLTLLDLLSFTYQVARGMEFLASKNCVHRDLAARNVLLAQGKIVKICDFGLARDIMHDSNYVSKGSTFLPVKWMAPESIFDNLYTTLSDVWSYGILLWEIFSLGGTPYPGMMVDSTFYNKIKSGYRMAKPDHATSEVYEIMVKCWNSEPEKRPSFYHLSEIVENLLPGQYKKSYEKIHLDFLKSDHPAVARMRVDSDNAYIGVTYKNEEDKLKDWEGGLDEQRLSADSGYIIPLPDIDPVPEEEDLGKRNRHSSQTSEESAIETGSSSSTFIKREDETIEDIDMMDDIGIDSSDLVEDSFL

Q: Which Activity [1] does the source give for `Cc1ccc2c(Nc3ccc(Cl)cc3)nccc2c1Nc1ncccc1-c1ncnc2[nH]cnc12.Cl.Cl.Cl` here?
A: 100%

Q: And the Activity [2]?
A: 88%

Q: What about the Activity [3] of the same compound?
A: 88%

Q: What about the Activity [4] of the same compound?
A: 100%

Q: And the Activity [5]?
A: 64%

Q: What about the AUC at 24 h [6] of the same compound?
A: 2730 ng·h/mL

Q: What about the Activity [7] of the same compound?
A: 92%

Q: What about the Activity [8] of the same compound?
A: 96%

Q: And the Activity [9]?
A: 95%

Q: And the Activity [10]?
A: 100%

Q: And the Activity [11]?
A: 87%

Q: And the Activity [12]?
A: 100%

Q: What about the Activity [13] of the same compound?
A: 100%

Q: And the Activity [14]?
A: 73%

Q: And the Activity [15]?
A: 100%

Q: And the Activity [16]?
A: 0%

Q: What about the Activity [17] of the same compound?
A: 16%

Q: And the Activity [18]?
A: 100%

Q: What about the Activity [19] of the same compound?
A: 90%

Q: And the Vd [20]?
A: 1.9 L/kg

Q: What about the half-life [21] of the same compound?
A: 3.5 h

Q: What about the Activity [22] of the same compound?
A: 84%

Q: What about the Activity [23] of the same compound?
A: 95%

Q: What about the Activity [24] of the same compound?
A: 95%

Q: And the Activity [25]?
A: 100%

Q: What about the Activity [26] of the same compound?
A: 0.45%

Q: What about the Activity [27] of the same compound?
A: 80%

Q: What about the Activity [28] of the same compound?
A: 78%

Q: What about the Activity [29] of the same compound?
A: 18%

Q: What about the Activity [30] of the same compound?
A: 100%

Q: What about the Activity [31] of the same compound?
A: 100%

Q: And the Activity [32]?
A: 100%

Q: And the Activity [33]?
A: 98%

Q: And the Activity [34]?
A: 100%

Q: And the Activity [35]?
A: 100%

Q: What about the Activity [36] of the same compound?
A: 96%

Q: What about the Activity [37] of the same compound?
A: 100%

Q: And the Activity [38]?
A: 6.5%
